Consider two compounds from publication PMC8760490, “Discovery of novel furanylbenzamide inhibitors that target oncogenic tyrosine phosphatase SHP2 in leukemia cells” (The Journal of Biological Chemistry, 2021).

SMILES strings stand for the structures. Like-named read-outs stand apart in the source and are kept apart here.

The subject of one assay is MOLM-13 AML cells. Description: Cell viability (CellTiter-Glo), MOLM-13. Type of assay: cell-based. As to conditions: Homo sapiens. The procedure: Inhibition of SHP2 has been reported to inhibit the growth of cancer cells including Kasumi-1 acute myeloid leukemia (AML) and KYSE-520 esophageal cancer cells ([30]). […] Thus, we treated two TNBC cell lines, BT-549 and MDA-MB-468, with SBI-4668 or the SHP2 allosteric inhibitor SHP099 at various concentrations and determined cell viability after 72 h, compared with the vehicle control (Fig. 4C). […] Next, we performed an 11-day colony formation assay with TNBC cells treated with SBI-4668 or SHP099 at 5, 10, or 20 μM (Fig. 4D).
(§1) Finally, we evaluated the selectivity of our top two compounds, SBI-2130 and SBI-4668, on MOLM-13 AML cells in which SHP2 was depleted using CRISPR–Cas9 KO. High-efficiency Cas9-editing MOLM-13 cells were generated by transducing MOLM-13 cells with a Cas9 lentiviral construct. Stable clones were tested for editing efficiency by performing tracking of indels by decomposition analysis ([45]), and these MOLM-13-Cas9 cells were transduced with a lentiviral construct containing an AAVS1 single-guide RNA (sgRNA) and an mCherry reporter for bulk sorting of cells with successful AAVS1 editing. SHP2 KO was achieved by transducing MOLM-13-Cas9-mCherry cells with a lentivirus, containing SHP2 dual sgRNAs, resulting in ∼80% reduction of SHP2 protein levels (Fig. 4G). SBI-2130, SBI-4668, and the SHP2 allosteric inhibitor, SHP099, were tested in parallel on regular MOLM-13 cells (expressing WT SHP2) and MOLM-13-Cas9-mCherry cells with SHP2 KO. Cells were treated with inhibitors at various concentrations (ranging from 30 μM to 58 nM) or vehicle control (DMSO) for 72 h, before cell viability was assessed.
Viability of AML and esophageal carcinoma cells was assessed using the ATP-depletion assay CellTiter-Glo (Promega). Cells were harvested at 1 × 10^6/ml to 2 × 10^6 cells/ml with cell numbers determined by trypan blue using the Countess Cell counter (Thermo Scientific) and resuspended in culture media. About 3000 cells (in 20 μl) were seeded in a 384-well format white and clear-bottom microplate (catalog no.: 781098; Greiner) spotted with test compound or vehicle control (DMSO) using an Echo 555 Liquid Handler. […] Luminescence was read on a Tecan Spark Multimode Microplate Reader, and data were analyzed using GraphPad Prism software.
For SHP2 KO, dual sgRNAs targeting SHP2 were cloned in the pLentiGuide puro vector (Addgene plasmid no. 52963 from Dr Feng Zhang) using a published protocol ([50]). […] SHP2 KO was evaluated by immunoblotting. […] For SHP2 KO, MOLM-13-Cas9-mCherry cells were seeded in nontreated 6-well plates (2 × 10^6 cells/well in 2.5 ml), with cell numbers determined by trypan blue using the Countess Cell Counter (Thermo Scientific). […]

Assay [1] relates to MOLM-13-Cas9-mCherry cells with SHP2 KO. Description: Cell viability, MOLM-13 SHP2 CRISPR–Cas9 KO. Type of assay: cell-based. As to conditions: 72 h, 30 μM to 58 nM. On the procedure: as §1, with “SHP2 KO was achieved by transducing MOLM-13-Cas9-mCherry cells with a lentivirus, containing SHP2 dual sgRNAs, resulting in ∼80% reduction of SHP2 protein levels (Fig. 4G). SBI-2130, SBI-4668, and the SHP2 allosteric inhibitor, SHP099, were tested in parallel on regular MOLM-13 cells (expressing WT SHP2) and MOLM-13-Cas9-mCherry cells with SHP2 KO.” left out, “assessed. […]” for “assessed.”
For SHP2 KO, dual sgRNAs targeting SHP2 were cloned in the pLentiGuide puro vector (Addgene plasmid no. 52963 from Dr Feng Zhang) using a published protocol ([50]). […] SHP2 KO was evaluated by immunoblotting. […] For SHP2 KO, MOLM-13-Cas9-mCherry cells were seeded in nontreated 6-well plates (2 × 10^6 cells/well in 2.5 ml), with cell numbers determined by trypan blue using the Countess Cell Counter (Thermo Scientific). […] Cell viability was assessed using the ATP-depletion assay CellTiter-Glo as described previously, and data were analyzed using GraphPad Prism software.

Setting [2] is: 72 h, 30 μM to 58 nM, regular MOLM-13 expressing WT SHP2 (Fig. 4G), read-out: MOLM-13 cell viability IC50 (parallel to SHP2 KO).

With `Nc1ccc(NC(=O)c2cc(-c3ccc(/C=C4\Sc5ccccc5C4=O)o3)ccc2O)cc1` [SBI-2130, (Z)-N-(4-Aminophenyl)-2-hydroxy-5-(5-((3-oxobenzo[b]thiophen-2(3H)-ylidene)methyl)furan-2-yl)benzamide], in the assay with MOLM-13 AML cells (setting [2]), the IC50 came out at 7.6 µM. In addition, in assay [1], the “effect on viability of MOLM-13-Cas9-mCherry SHP2 KO cells” value is listed as “either completely abrogated or greatly reduced”.

In the case of `O=C(Nc1ccccc1)c1cc(-c2ccc(/C=C3\Sc4ccccc4C3=O)o2)ccc1O` [SBI-4668, (Z)-2-Hydroxy-5-(5-((3-oxobenzo[b]thiophen-2(3H)-ylidene)methyl)furan-2-yl)-N-phenylbenzamide], the IC50 was 12 µM with MOLM-13 AML cells (MOLM-13, 72 h, 3 days in culture (Fig. 4B), read-out: MOLM-13 cell viability IC50) and 15 µM in the assay on MOLM-13 AML cells (setting [2]). Further, the “effect on viability of MOLM-13-Cas9-mCherry SHP2 KO cells” value in assay [1] is given as “either completely abrogated or greatly reduced”.
